Experimental data reported in patent US20110117164A1, “Use of Additive Sites to Control Nitric Oxide Release from Nitric Oxide Donors Contained within Polymers” (priority 2004, published 2011).

What was measured:
[1] = Air stability of isolated intramolecular diazeniumdiolates; assay type: physicochemical
Description: The reaction of NO with 1f yielded a diazeniumdiolate (as determined by UV) that was initially air-stable, but decomposed after 12 hours even with storage at −20° C. […] Thus, the most air-stable intramolecular diazeniumdiolate that could be isolated was that of diamine 1e. Air stable bis-diazeniumdiolates of 1f and 1g may, however, be prepared when an exogenous base such as sodium methoxide is present in the reaction mixture.

[2] = for t1/2 ("apparent" t1/2 and t1/2): buffer, pH 7.4; for k: first order decomposition, PBS buffer, pH 7.4, 37° C., n > 3
Description: UV-vis spectra were monitored on a Beckman DU 640B spectrophotometer.

[3] = donor and its diamine precursor; back react to potentially toxic nitrosamines; cited from earlier work
thrombus formation = conditions: dispersed in a silicone rubber matrix; cited from earlier work
[4] = NO release from polymer films/coatings containing NO donor in PBS buffer at 37° C. by chemiluminescence; assay type: physicochemical; conditions: ~5 wt. % in PVC film plasticized with DOS (1:2), PBS buffer, 37° C., no KTpClPB
Description: Thermal stability of diazeniumdiolates. […] Kinetics. […] Use in Hydrophobic Systems.
In the absence of the KTpClPB, NO release decreases dramatically after approximately 1 hour. […] The decrease in NO release observed is believed to result from an increase in the pH within the organic polymer film, which decreases the decomposition rate of lipophilic diazeniumdiolates. As water diffuses into the film initiating NO release, secondary amine sites result. The secondary amine sites have a higher pKa than water and therefore deprotonate water to form hydroxide ions. The basic microdomain environment that results within the polymer, in turn, slows further decomposition of the remaining diazeniumdiolates that would generate NO. This retardation may occur as a result of the organic ammonium hydroxide microphases within the polymer, which in turn serves to stabilize the remaining diazeniumdiolates.
FT-IR were collected on Perken Elmer Spectrum VX. […] Elemental analyses were performed. Reagents. […] NO was purchased from Matheson Gases. […] General NO Addition Procedure. […] The products were finally collected and dried under vacuum. Molar Extinction Coefficients. […] The maximum wavelength and absorbance were collected. […] Kinetics Studies. […] The NO released was measured using chemiluminescence. […] Preparation of Polymer Films Containing Diazeniumdiolates. […] The membranes were covered and allowed to cure overnight. […] Polymerization to Form Boc-protected Diamine Copolymer.
General Procedure for Deprotection to Form Diamine Copolymer (c). 35 mg of the copolymer (b) was dissolved in 2 mL of dichloromethane and then 200 μL of TFA (trifluoroacetic acid) was added dropwise. The solution was stirred at room temperature for about 3 hours. The reaction mixture was diluted with 20 mL of dichloromethane, and the organic phase was then washed with sodium bicarbonate, water, and brine, and was dried with sodium sulfate. The solvent was evaporated and the resulting copolymer was dried under vacuum overnight. ^1H-NMR was performed to confirm the structure and actual composition of the copolymer. General Procedure for NO Loading to Form Polymer-Based NO Donor (d). 20 mg of the deprotected copolymer (c) was dissolved in 3 mL of dry THF and placed in a high pressure reactor with a stirring bar, and flushed with argon for about 10 minutes. 100% excess of sodium methoxide (with respect to free amine sites) was added and the reactor was closed. The reactor was purged with argon again for several times (e.g. ten times) over a 1 hour period and was charged with NO at 80 psi. The reaction mixture was stirred for 72 hours at room temperature. After the reaction was complete, the copolymer was precipitated with dry hexane under argon. The remaining solvent was removed using a vacuum, and the diazeniumdiolated copolymers (d) were examined by UV-Vis spectrum as well as NOA. This resulting copolymer was stored in sealed vials charged with argon in a freezer. Preparation of Polymer Films Containing Polymer-Based No Donor. Polymer membranes containing the polymer-based NO donor was prepared by dissolving 60.8 mg poly(vinyl chloride) (PVC), 30.4 mg dioctyl sebacate (DOS), and 9.1 mg poly(lactide-co-glycolide) (50:50) (PLGA 50:50) in 1.5 mL of freshly distilled tetrahydrofuran. […] A trilayer film configuration is employed to fabricate films. […] Four hours later the polymer cocktail was cast on top of the PVC layer. After another 4 hours, the PVC solution was cast again as a finish layer. The membrane was covered and allowed to cure overnight. Polymer films containing no additives were prepared in a similar manner. […] NO Release Measurements by Chemiluminescence. All NO measurements were performed using a Sievers Nitric Oxide Analyzer (NOA), model 280. The instrument was calibrated before each experiment using an internal two-point calibration (zero gas and 45 PPM). The flow rate was set to 200 mL/min with a cell pressure of 5.4 torr and an oxygen pressure of 6.0 psig. […]

[5] = Thermal gravimetric analysis under nitrogen (thermal stability of diazeniumdiolates); assay type: physicochemical; conditions: nitrogen atmosphere
platelet activity = conditions: within a polymer coating on the inner walls of extracorporeal circuits; cited from earlier work
[6] = test system: cells after vascular injury; conditions: cited from earlier work
[7] = in vivo; cited from earlier work

Row | Structure (SMILES) | t1/2 ("apparent" t1/2 and t1/2) [2] | k [2] | TNO loss (stable up to) [5] | also measured
1 | CCCCCCN(CCCCCC)CCCCCCN [Compound 1f, N,N-dihexylhexamethylene diamine] |  |  |  | time to decomposition of the initially air-stable diazeniumdiolate ([1]; even with storage at −20° C.): 12 h
2 | CCCCCCCCCCCCN(CCCCCCN)CCCCCCCCCCCC [Compound 1g, N,N-didodecylhexamethylene diamine] |  |  |  | air stability during work-up ([1]; presence of oxygen during the work-up procedure): immediately decomposes
3 | CNCCCCCCN(C)/[N+]([O-])=N/O [Compound 2a, (Z)-1-[N-methyl-N-[6-(N-methylammoniohexyl)amino]]-diazen-1-ium-1,2-diolate] | 1.12 ± 0.012 min | 0.010 ± 0.0001 s⁻¹ | 104 °C | leaching from polymer matrix [3]: tend to leach from the surface of the polymer matrix; effect on thrombus formation (thrombus formation): prevent thrombus formation on the surface of intravascular sensors; total NO release profile from film without additive [4]: releases all of its NO in a short period of time; effect on platelet activity (platelet activity): greatly reduce platelet activity
4 | CCNCCCCCCN(CC)/[N+]([O-])=N/O [Compound 2b, (Z)-1-{N-Ethyl-N-[6-(N-ethylammoniohexyl)amino]}diazen-1-ium-1,2-diolate] | 5.78 ± 0.433 min | 0.0020 ± 0.0001 s⁻¹ | 104 °C | 
5 | CCCNCCCCCCN(CCC)/[N+]([O-])=N/O [Compound 2c, (Z)-1-{N-Propyl-N-[6-(N-propylammoniohexyl)amino]}-diazen-1-ium-1,2-diolate] | 5.32 ± 0.383 min | 0.0022 ± 0.0001 s⁻¹ | 104 °C | 
6 | CCCCCNCCCCCCN(CCCCC)/[N+]([O-])=N/O [Compound 2e, (Z)-1-{N-Pentyl-N-[6-(N-pentylammoniohexyl)amino]}-diazen-1-ium-1,2-diolate] | 4.65 ± 0.517 min | 0.0025 ± 0.0001 s⁻¹ | 104 °C | 
7 | NCCN(CCN)/[N+]([O-])=N/O [DETA/NO] |  |  |  | effect on cell proliferation after vascular injury [6]: substantially suppress overproliferation of cells after vascular injury
8 | O=C([O-])C1CCCN1[N+]([O-])=N[O-].[Na+].[Na+] (centres unmarked) [PROLI/NO] |  |  |  | effect when infused into blood [7]: relieve muscle spasms
